Consider 19 compounds from patent US20230365537A1, “POLO LIKE KINASE 4 INHIBITORS” (ORIC Pharmaceuticals, Inc., priority 2021, published 2023).

The target in assay [1] is human recombinant Aurora B (Homo sapiens (Human), UniProt Q96GD4). Put plainly: Aurora B Kinase Biochemical Assay (ADP-Glo). Particulars: ratio of Aurora B IC50 to PLK4 IC50 (selectivity). The essentials: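 IC50 derived by four-parameter nonlinear fit of ADP-Glo luminescence (ADP produced). Compound was preincubated 15 min at RT with 20 nM recombinant human Aurora B, in 50 mM HEPES pH 7.5, 10 mM MgCl2, 1 mM EGTA, 1 mM DTT, 0.01% Brij-35/BSA.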
(ADP-Glo turns the ADP formed in a reaction into a luminescent signal.)

In assay [2] the target is human recombinant Aurora A (Homo sapiens (Human), UniProt O14965). In words: Aurora A Kinase Biochemical Assay (ADP-Glo). To be noted: ratio of Aurora A IC50 to PLK4 IC50 (selectivity).
In assay [3] the target is human recombinant PLK4 (Homo sapiens (Human), UniProt O00444). Put plainly: PLK4 Biochemical Assay (ADP-Glo). Particulars: 0.5 nM PLK4, 8.0 µM ATP, 4.7 µM MBP, 6 hours at RT. The essentials:
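Luminescent ADP-Glo detection quantified ADP production, with ATP depletion for 40 min and detection for 30 min at room temperature. Compound and PLK4 (1.0 nM stock addition) were preincubated 15 min in HEPES pH 7.5 buffer containing MgCl2, EGTA, DTT, Brij-35 and BSA. IC50 values were obtained by four-parameter nonlinear regression.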

The subject of assay [4] is CHP-134 cells. Put plainly: CHP134 CellTiter-Glo (CTG) Assay. The assay is classed as cell-based. To be noted: 5 days, viable cells by CellTiter-Glo. The protocol:
Cells were seeded (200 cells/well) in 384-well plates for 16 hours. On day two, nine serial 1:3 compound dilutions were made in DMSO in a 96-well plate. The compounds were then further diluted into growth media using a BRAVO robot (Agilent, Santa Clara, CA). The diluted compounds were then added to quadruplicate wells in the 384-well cell plate and incubated at 37° C. and 5% CO2. After 5 days, relative numbers of viable cells were measured by luminescence using CellTiter-Glo® (Promega) according to the manufacturer’s instructions and read on a SPARK Multimode Microplate Reader (Tecan, Mannedorf Switzerland). The IC50 calculations for the values reported in Table 2 were carried out using Prism 6.0 software (GraphPad, San Diego).

Sequence of human recombinant PLK4 (O00444 whole entry): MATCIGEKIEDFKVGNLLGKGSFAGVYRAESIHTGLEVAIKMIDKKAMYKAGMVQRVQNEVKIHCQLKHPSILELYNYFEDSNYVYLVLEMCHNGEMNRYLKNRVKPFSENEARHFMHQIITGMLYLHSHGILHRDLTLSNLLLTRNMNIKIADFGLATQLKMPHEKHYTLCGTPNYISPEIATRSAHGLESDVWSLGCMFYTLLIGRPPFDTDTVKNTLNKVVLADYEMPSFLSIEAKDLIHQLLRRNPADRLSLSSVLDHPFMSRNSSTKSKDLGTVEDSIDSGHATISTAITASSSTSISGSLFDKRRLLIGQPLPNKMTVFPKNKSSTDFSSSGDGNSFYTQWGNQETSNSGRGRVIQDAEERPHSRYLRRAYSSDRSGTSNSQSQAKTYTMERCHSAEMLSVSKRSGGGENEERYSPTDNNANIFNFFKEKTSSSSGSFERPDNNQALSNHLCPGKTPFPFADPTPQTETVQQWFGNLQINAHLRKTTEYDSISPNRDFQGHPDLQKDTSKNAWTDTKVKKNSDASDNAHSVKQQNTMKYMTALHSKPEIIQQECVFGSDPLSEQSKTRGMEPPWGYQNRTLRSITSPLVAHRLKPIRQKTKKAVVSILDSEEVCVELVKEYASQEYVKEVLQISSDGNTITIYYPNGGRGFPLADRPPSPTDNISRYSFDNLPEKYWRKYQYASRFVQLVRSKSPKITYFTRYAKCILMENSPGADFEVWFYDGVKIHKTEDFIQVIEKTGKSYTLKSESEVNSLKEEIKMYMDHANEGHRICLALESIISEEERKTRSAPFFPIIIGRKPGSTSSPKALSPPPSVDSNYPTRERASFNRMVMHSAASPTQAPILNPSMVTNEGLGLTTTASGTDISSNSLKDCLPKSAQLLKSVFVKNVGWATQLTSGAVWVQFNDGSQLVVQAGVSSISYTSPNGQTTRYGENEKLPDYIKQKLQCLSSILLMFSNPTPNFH
Sequence of human recombinant Aurora B (Q96GD4 whole entry): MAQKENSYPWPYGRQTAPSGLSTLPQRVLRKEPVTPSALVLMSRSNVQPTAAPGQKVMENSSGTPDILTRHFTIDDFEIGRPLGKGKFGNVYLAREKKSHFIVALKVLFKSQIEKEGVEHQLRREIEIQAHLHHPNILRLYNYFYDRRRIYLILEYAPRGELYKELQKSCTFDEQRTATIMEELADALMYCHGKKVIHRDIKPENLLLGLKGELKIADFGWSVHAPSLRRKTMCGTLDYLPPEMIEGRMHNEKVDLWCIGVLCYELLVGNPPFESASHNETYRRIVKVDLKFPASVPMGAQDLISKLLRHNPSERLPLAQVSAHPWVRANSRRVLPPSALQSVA
Sequence of human recombinant Aurora A (O14965 whole entry): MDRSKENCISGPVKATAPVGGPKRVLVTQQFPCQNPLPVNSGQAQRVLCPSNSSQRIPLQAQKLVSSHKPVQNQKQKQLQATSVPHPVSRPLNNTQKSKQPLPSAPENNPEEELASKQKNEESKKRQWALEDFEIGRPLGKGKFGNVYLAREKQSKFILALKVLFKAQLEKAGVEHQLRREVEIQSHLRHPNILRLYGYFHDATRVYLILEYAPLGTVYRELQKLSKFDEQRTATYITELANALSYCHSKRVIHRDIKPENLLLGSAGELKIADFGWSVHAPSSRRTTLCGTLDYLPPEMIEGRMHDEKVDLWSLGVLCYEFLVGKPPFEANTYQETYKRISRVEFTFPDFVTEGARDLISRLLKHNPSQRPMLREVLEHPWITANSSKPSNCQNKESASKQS

On to `COc1ccc2c(c1)[C@]1(C[C@H]1c1ccc3c(Nc4nc(C5CCOC5)ncc4OC)n[nH]c3c1)C(=O)N2` (single isomer, unassigned) [Example 201], for which, in assay [1], the “[Aurora B IC50 (nM)]/[PLK4 IC50 (nM)]” value is 229.0739. Moreover, in assay [2], the “[Aurora A IC50 (nM)]/[PLK4 IC50 (nM)]” value came to 485.6389. In addition, the IC50 (as a rule, the concentration needed to halve the response being measured) in assay [3] was 1.71 nM; in assay [4] (Homo sapiens, CHP-134, 120 h), 455 nM.

For `COc1ccc2c(c1)[C@]1(C[C@H]1c1ccc3c(Nc4ccc([S+](C)[O-])nc4OC)n[nH]c3c1)C(=O)N2` (single isomer, unassigned) [Example 239], the “[Aurora B IC50 (nM)]/[PLK4 IC50 (nM)]” value in assay [1] is recorded as 466.8047. In addition, in assay [2], the “[Aurora A IC50 (nM)]/[PLK4 IC50 (nM)]” value turned out to be 1429.5857. Moreover, the results for the IC50 in assay [3] and in assay [4] were 1.69 nM and 949 nM, respectively.

On to `COc1ccc2c(c1)[C@]1(C[C@H]1c1ccc3c(Nc4ccc([S+](C)[O-])nc4OC)n[nH]c3c1)C(=O)N2` (single isomer, unassigned) [Example 240], for which, in assay [1], the “[Aurora B IC50 (nM)]/[PLK4 IC50 (nM)]” value is recorded as 102.4323. Moreover, the “[Aurora A IC50 (nM)]/[PLK4 IC50 (nM)]” value in assay [2] is given as 735.1996. Moreover, the 50% inhibitory concentration (IC50) stood at 2.18 nM in assay [3] and 422 nM in assay [4].

`COc1ccc2c(c1)[C@]1(CC1c1ccc3c(/C=C/c4ccc(CN5C[C@@H](C)O[C@@H](C)C5)cc4)n[nH]c3c1)C(=O)N2` (stereo partly drawn) [CFI-400495, reference compound] returned a half-maximal inhibitory concentration (IC50) in assay [4] (Homo sapiens, CHP-134, 120 h) of 9.08 nM.

`COc1ccc2c(c1)[C@]1(C[C@H]1c1ccc3c(Nc4ncnc(N5CCOCC5)c4Cl)n[nH]c3c1)C(=O)N2` [Example 9, (1R,2S)-2-(3-{[5-Chloro-6-(morpholin-4-yl)pyrimidin-4-yl]amino}-1H-indazol-6-yl)-5′-methoxyspiro[cyclopropane-1,3′-indol]-2′(1′H)-one]: the “[Aurora B IC50 (nM)]/[PLK4 IC50 (nM)]” value in assay [1] came to 240.6394. Further, the “[Aurora A IC50 (nM)]/[PLK4 IC50 (nM)]” value in assay [2] is reported as 4791.187. Moreover, the IC50 in assay [3] stood at 0.694 nM; in assay [4] (Homo sapiens, CHP-134, 120 h), 99.7 nM.

As to `COc1ccc2c(c1)[C@]1(C[C@H]1c1ccc3c(Nc4nc(Cl)ncc4OC)n[nH]c3c1)C(=O)N2` [Example 10, (1R,2S)-2-{3-[(2-Chloro-5-methoxypyrimidin-4-yl)amino]-1H-indazol-6-yl}-5′-methoxyspiro[cyclopropane-1,3′-indol]-2′(1′H)-one], the “[Aurora B IC50 (nM)]/[PLK4 IC50 (nM)]” value in assay [1] was found to be 103.0876. Besides, in assay [2], the “[Aurora A IC50 (nM)]/[PLK4 IC50 (nM)]” value is listed as 954.6314. The IC50 turned out to be 1.59 nM in assay [3] and 438 nM in assay [4] (Homo sapiens, CHP-134, 120 h).

As for `COc1ccc2c(c1)[C@]1(C[C@H]1c1ccc3c(Nc4ncnc(N5CCOCC5)c4OC)n[nH]c3c1)C(=O)N2` [Example 11, (1R,2S)-5′-Methoxy-2-(3-{[5-methoxy-6-(morpholin-4-yl)pyrimidin-4-yl)amino}-1H-indazol-6-yl)spiro[cyclopropane-1,3′-indol]-2′(1′H)-one], in assay [1], the “[Aurora B IC50 (nM)]/[PLK4 IC50 (nM)]” value turned out to be 77.87. In assay [2], the “[Aurora A IC50 (nM)]/[PLK4 IC50 (nM)]” value came to 3277.276. In addition, the IC50 in assay [3] is 4.88 nM; in assay [4] (Homo sapiens, CHP-134, 120 h), 2950 nM.

For the compound `COc1ccc2c(c1)[C@]1(C[C@H]1c1ccc3c(Nc4ncnc(N5CCCCC5)c4OC)n[nH]c3c1)C(=O)N2` [Example 12, (1R.2S)-5′-Methoxy-2-(3-{[5-methoxy-6-(piperidin-1-yl)pyrimidin-4-yl]amino}-1H-indazol-6-yl)spiro[cyclopropane-1,3′-indol]-2′(1′H)-one], the IC50 in assay [3] came out at 4.96 nM; in assay [4] (Homo sapiens, CHP-134, 120 h), 2030 nM.

For `COc1ccc2c(c1)[C@]1(C[C@H]1c1ccc3c(Nc4nc(OC)ncc4OC)n[nH]c3c1)C(=O)N2` [Example 156, (1R,2S)-2-{3-[(2,5-dimethoxypyrimidin-4-yl)amino]-1H-indazol-6-yl}-5′-methoxyspiro[cyclopropane-1,3′-indol]-2′(1′H)-one], the midpoint of inhibition in assay [4] (Homo sapiens, CHP-134, 120 h), the IC50, lay at 494 nM.

As for `COc1ccc2c(c1)[C@]1(C[C@H]1c1ccc3c(Nc4cc(N5CCN(C)C5=O)cnc4OC)n[nH]c3c1)C(=O)N2` [Example 221, (1R,2S)-5′-methoxy-2-(3-{[2-methoxy-5-(3-methyl-2-oxoimidazolidin-1-yl)pyridin-3-yl]amino}-1H-indazol-6-yl)spiro[cyclopropane-1,3′-indol]-2′(1′H)-one], 849 nM corresponded to half-maximal inhibition in assay [4] (Homo sapiens, CHP-134, 120 h) (IC50).

Compound `COc1ccc2c(c1)[C@]1(C[C@H]1c1ccc3c(Nc4cc(S(=O)(=O)C5CCOCC5)ccc4OC)n[nH]c3c1)C(=O)N2` [Example 224, (1R,2S)-5′-methoxy-2-{3-[2-methoxy-5-(oxane-4-sulfonyl)anilino]-1H-indazol-6-yl}spiro[cyclopropane-1,3′-indol]-2′(1′H)-one] had an IC50 in assay [4] (Homo sapiens, CHP-134, 120 h) of 2020 nM.

As for `COc1ccc2c(c1)[C@]1(C[C@H]1c1ccc3c(Nc4cnc(C(=O)N(C)C)cc4OC)n[nH]c3c1)C(=O)N2` [Example 253, 4-methoxy-5-({6-[(1R,2S)-5′-methoxy-2′-oxo-1′,2′-dihydrospiro[cyclopropane-1,3′-indol]-2-yl]-1H-indazol-3-yl}amino)-N,N-dimethylpyridine-2-carboxamide], the “[Aurora B IC50 (nM)]/[PLK4 IC50 (nM)]” value in assay [1] is 88.7161. In addition, the “[Aurora A IC50 (nM)]/[PLK4 IC50 (nM)]” value in assay [2] came out at 709.6288. Besides, the IC50 in assay [3] was found to be 5.98 nM.

On to `COc1ccc2c(c1)[C@]1(C[C@H]1c1ccc3c(Nc4ccc(C#N)nc4OC)n[nH]c3c1)C(=O)N2` [Example 260, 6-methoxy-5-({6-[(1R,2S)-5′-methoxy-2′-oxo-1′,2′-dihydrospiro[cyclopropane-1,3′-indol]-2-yl]-1H-indazol-3-yl}amino)pyridine-2-carbonitrile], for which, in assay [1], the “[Aurora B IC50 (nM)]/[PLK4 IC50 (nM)]” value turned out to be 294.8429. The “[Aurora A IC50 (nM)]/[PLK4 IC50 (nM)]” value in assay [2] turned out to be 1330.5457. Further, the IC50 in assay [3] was 9.33 nM.

For the compound `CCP(=O)(CC)c1ccc(OC)c(Nc2n[nH]c3cc([C@@H]4C[C@@]45C(=O)Nc4ccc(OC)cc45)ccc23)c1` [Example 261, (1R,2S)-2-{3-[5-(diethylphosphoryl)-2-methoxyanilino]-1H-indazol-6-yl}-5′-methoxyspiro[cyclopropane-1,3′-indol]-2′(1′H)-one], in assay [1], the “[Aurora B IC50 (nM)]/[PLK4 IC50 (nM)]” value is listed as 2807.8381. Further, the “[Aurora A IC50 (nM)]/[PLK4 IC50 (nM)]” value in assay [2] was 5824.2730. The IC50 in assay [3] is 7.91 nM.

For the compound `CCOc1cc(S(=O)(=O)NC)cnc1Nc1n[nH]c2cc([C@@H]3C[C@@]34C(=O)Nc3ccc(OC)cc34)ccc12` [Example 275, 5-ethoxy-6-({6-[(1R,2S)-5′-methoxy-2′-oxo-1′,2′-dihydrospiro[cyclopropane-1,3′-indol]-2-yl]-1H-indazol-3-yl}amino)-N-methylpyridine-3-sulfonamide], the “[Aurora B IC50 (nM)]/[PLK4 IC50 (nM)]” value in assay [1] is recorded as 230. Besides, the “[Aurora A IC50 (nM)]/[PLK4 IC50 (nM)]” value in assay [2] came out at 2162.7118. In addition, the IC50 in assay [3] is 0.59 nM.

Take `CCOc1cc(=O)n(C)nc1Nc1n[nH]c2cc([C@@H]3C[C@@]34C(=O)Nc3ccc(OC)cc34)ccc12` [Example 277, (1R,2S)-2-{3-[(4-ethoxy-1-methyl-6-oxo-1,6-dihydropyridazin-3-yl)amino]-1H-indazol-6-yl}-5′-methoxyspiro[cyclopropane-1,3′-indol]-2′(1′H)-one]: the “[Aurora B IC50 (nM)]/[PLK4 IC50 (nM)]” value in assay [1] worked out at 1049.1355. In addition, in assay [2], the “[Aurora A IC50 (nM)]/[PLK4 IC50 (nM)]” value is given as 1120.5641. Moreover, the IC50 in assay [3] is 2.2 nM.

Consider `COc1ccc2c(c1)[C@]1(C[C@H]1c1ccc3c(Nc4nc(C(C)(C)O)ccc4OC)n[nH]c3c1)C(=O)N2` [Example 278, (1R,2S)-2-(3-{[6-(2-hydroxypropan-2-yl)-3-methoxypyridin-2-yl]amino}-1H-indazol-6-yl)-5′-methoxy-1′H-spiro[cyclopropane-1,3′-indol]-2′-one], for which the “[Aurora B IC50 (nM)]/[PLK4 IC50 (nM)]” value in assay [1] was found to be 423.6318. For the same compound, the “[Aurora A IC50 (nM)]/[PLK4 IC50 (nM)]” value in assay [2] stood at 1269.9004. In addition, the IC50 in assay [3] is 0.804 nM.

Turning to `CCOc1cc(S(C)(=O)=O)ncc1Nc1n[nH]c2cc([C@@H]3C[C@@]34C(=O)Nc3ccc(OC)cc34)ccc12` [Example 279, (1R,2S)-2-{3-[(4-ethogy-6-methanesulfonylpyridin-3-yl)amino]-1H-indazol-6-yl}-5′-methoxy-1′H-spiro[cyclopropane-1,3′-indol]-2′-one], the “[Aurora B IC50 (nM)]/[PLK4 IC50 (nM)]” value in assay [1] was determined as 2792.6646. Also, the “[Aurora A IC50 (nM)]/[PLK4 IC50 (nM)]” value in assay [2] was 37425.1497. In assay [3], the IC50 stood at 1.34 nM.

On to `COc1ccc2c(c1)[C@]1(C[C@H]1c1ccc3c(Nc4ncc(S(=O)(=O)C(F)F)cc4OC)n[nH]c3c1)C(=O)N2` [Example 280, (1R,2S)-2-{3-[(5-difluoromethanesulfonyl-3-methoxypyridin-2-yl)amino]-1H-indazol-6-yl}-5′-methoxy-1′H-spiro[cyclopropane-1,3′-indol]-2′-one], for which the “[Aurora B IC50 (nM)]/[PLK4 IC50 (nM)]” value in assay [1] amounted to 309.1097. Besides, the “[Aurora A IC50 (nM)]/[PLK4 IC50 (nM)]” value in assay [2] turned out to be 727.2256. Moreover, the IC50 in assay [3] amounted to 1.93 nM.
